Assay results: US20200077655A1, “Use of an Acyclic Picolinamide Compound as a Fungicide for Control of Phytopathogenic Fungi in Orchard, Vineyard and Plantation Crops” (Dow AgroSciences LLC, priority 2017, published 2020)

What was measured:
Assay type in all cases: in vivo
[1] = system: Monilinia fructicola (MONIFC); assay: Field assessment on brown rot of fruits on nectarines, harvest and shelf life simulation; settings: curative; for Percent control based on fruit incidence vs untreated, Harvest: 8 DAAB
Text: A fungicidal treatment containing Compound I, applied in a 5% EC formulation and tank mixed with an adjuvant (Trycol, 50% w/w at 0.2% v/v), was sprayed twice during fruit ripening on the plant canopy of nectarines (PRNPN, Calfornia variety) at rates of 50, 100, and 150 grams of active ingredient per hectare (g ai/ha). The applications were done at 8 day intervals with disease inoculation 12 days before the first application (curative). The treatment was part of an experimental trial designed as a randomized complete block with four replications and a plot of approximately 4.3×6.0 m, with compound I being applied using a MISTBLOW, Solo backpack applicator at a water volume of 800 L/ha.
The pathogen was certified to be Monilinia fructicola (MONIFC) by means of an immunoassay followed by a PCR assay on material collected (mummies) from the trial. The brown rot disease at harvest was evaluated on 100 randomly picked fruits per plot, 8 days after application B (8 DAAB), calculating the incidence of fruit with disease and then the percent control using Abbotts. Visually healthy samples of 60 fruits per plot were then placed in alveolus plates and kept for 5 days in cold storage. The samples were then maintained for […] at about 20° C. (shelf life period). Several assessments were made to check the development of disease during the shelf life simulation. In particular, the percentage of rotten fruits were checked at the exit from cold storage (after 5 days of refrigeration, 13 DAAB) followed by 15, 17, 20 and 23 DAAB. Percent of fruit with disease was calculated (incidence) amd then percent control was calculated using Abbotts.

Venturia pyrina (VENTPI) = assay: Field assessment of pear scab; settings: pears, 15 days after final application
Text: A 10% SC formulation of Compound I was tank mixed with three different adjuvants: Agnique BP420 (50% w/w at 0.3% v/v), Ethomeen T18H (50% w/w at 0.15% v/v) and Trycol (50% w/w at 0.3% v/v). Formulations of compound I were sprayed on the plant canopy of pear trees (Highland variety) of approximately 2.5 m in height at rates of 100, 150 and 200 grams of active ingredient per hectare (g ai/ha). The trial was based on six foliar applications during the growing season at approximately 12 day intervals with natural pear scab and sooty mold infections in open field conditions. The treatment was part of an experimental trial designed as a randomized complete block with four replications and a plot of approximately 3×5 m. Formulations of compound I were applied with a SOLO mistblower sprayer at a water volume of 1500 L/ha.
For VENTPI evaluation, percent control was calculated based on incidence and severity in fruit assessment vs the nontreated control on a random selection of 50 fruits per plot. For CAPDSP assessment, percent control was calculated from percent leaf severity using Abbotts and the nontreated control. Percent control for both diseases was calculated at 11DAAE, 7DAAF and 15DAAF.

[2] = system: Botrytis cinerea (BOTRCI); assay: Strawberry shelf-life simulation, gray mold
Text: Strawberry shelf-life simulation (3 repetitions): Fungicidal treatments were applied to strawberry plants grown in a shade house to obtain healthy fruits. Once matured, the healthy fruits were harvested and transferred to a laboratory for a shelf-simulation study. In the laboratory, the fruits were bleach decontaminated to remove residual chemical residue. Compound I, applied in a 5% EC formulation and mixed with an adjuvant (Trycol, 50% w/w at 0.2% v/v), was sprayed on the healthy strawberries at rates of 50, 100 and 150 grams of active ingredient per hectare (g ai/ha) and allowed to dry completely. The fruits were then inoculated with gray mold and incubated on a laboratory bench at 20° C. Disease severity was recorded as a percentage of fruit infection assessments. Gray mold infection was assessed twice after the initial inoculation, 4 days after infection (4DAI) and 6DAI. Area under the disease progress curve (AUDPC) was calculated for each repetition using the sets of recorded severity data. Relative AUDPC (% control based on AUDPC) was calculated as percent of the nontreated control.

[3] = system: Cladosporium caryigenum (CLADCA); assay: Field assessment of two trials for pecan nut scab
Text: A fungicidal treatment containing Compound I, applied in an SC formulation (MSO built-in) and tank mixed with an adjuvant (Agnique BP-420, 50% w/w at 0.2% v/v or Adsee C80W 80%), was sprayed on pecan trees (CYAIL, Desirable variety) from pre-flowering up to nut hardening at rates of 60, 120, 150, and 180 g ai/ha. The experimental plots were run with natural infestation. The treatment was part of an experimental trial designed as a randomized complete block (RCB) with four replications and a plot of approximately 40×40 ft, respectively. In one test, compound I was applied in 9 applications at water volume of 94-115 gallons per acre (gal/acre), using an Airblast sprayer (Hollowcone solid disc D10/45 nozzles) and pressurized at 46-54 psi. In the second test, compound I was applied in 8 applications at water volume of […] sprayer (solid stream nozzle) and pressurized at 300 psi. Both trials targeted 14 day intervals for applications.
Disease evaluations were made as % incidence and % severity nuts in one test, 3 evaluations each, 9 applications, and as % incidence nuts and % severity leaves in the second test, 2 and 3 evaluations, respectively, 8 applications. Area under the disease progress curve (AUDPC) was calculated for each plot using the sets of recorded severity and incidence data. Relative AUDPC (% control based on AUDPC) was calculated as percent of the untreated control.

[4] = 100 g ai/ha, adjuvant Agnique BP420 (first such line, r11)
[5] = 100 g ai/ha, adjuvant Agnique BP420 (second such line, r13)
[6] = 200 g ai/ha, adjuvant Agnique BP420

COc1ccnc(C(=O)N[C@@H](C)C(=O)O[C@@H](C)C(c2ccc(F)cc2)c2ccc(F)cc2)c1OC(C)=O [Compound I, (S)-1,1-bis(4-fluorophenyl)propan-2-yl (3-acetoxy-4-methoxypicolinoyl)-L-alaninate]
Percent control based on fruit incidence vs untreated, Shelf Life Simulation ([1]; 50 g ai/ha): C (26-50) | Percent control based on fruit incidence vs untreated, Harvest ([1]; 50 g ai/ha): B (51-75) | Percent control based on fruit incidence vs untreated, Shelf Life Simulation ([1]; 100 g ai/ha): C (26-50) | Percent control based on fruit incidence vs untreated, Harvest ([1]; 100 g ai/ha): B (51-75) | Percent control based on fruit incidence vs untreated, Shelf Life Simulation ([1]; 150 g ai/ha): B (51-75) | Percent control based on fruit incidence vs untreated, Harvest ([1]; 150 g ai/ha): B (51-75) | Percent control VENTPI, incidence in fruit assessment (Venturia pyrina (VENTPI); [4]): B (51-75) | Percent control VENTPI, severity in fruit assessment (Venturia pyrina (VENTPI); [4]): B (51-75) | Percent control VENTPI, incidence in fruit assessment (Venturia pyrina (VENTPI); [5]): B (51-75) | Percent control VENTPI, severity in fruit assessment (Venturia pyrina (VENTPI); [5]): A (76-100) | Percent control VENTPI, incidence in fruit assessment (Venturia pyrina (VENTPI); 100 g ai/ha, adjuvant ETHOMEEN): C (26-50) | Percent control VENTPI, severity in fruit assessment (Venturia pyrina (VENTPI); 100 g ai/ha, adjuvant ETHOMEEN): B (51-75) | Percent control VENTPI, incidence in fruit assessment (Venturia pyrina (VENTPI); 100 g ai/ha, adjuvant None): C (26-50) | Percent control VENTPI, severity in fruit assessment (Venturia pyrina (VENTPI); 100 g ai/ha, adjuvant None): B (51-75) | Percent control VENTPI, incidence in fruit assessment (Venturia pyrina (VENTPI); 100 g ai/ha, adjuvant Trycol): B (51-75) | Percent control VENTPI, severity in fruit assessment (Venturia pyrina (VENTPI); 100 g ai/ha, adjuvant Trycol): B (51-75) | Percent control VENTPI, incidence in fruit assessment (Venturia pyrina (VENTPI); [6]): B (51-75) | Percent control VENTPI, severity in fruit assessment (Venturia pyrina (VENTPI); [6]): B (51-75) | Percent control (AUDPC) from fruit severity assessments ([2]; 50 g ai/ha): B (51-75) | Percent control (AUDPC) from fruit severity assessments ([2]; 100 g ai/ha): A (76-100) | Percent control (AUDPC) from fruit severity assessments ([2]; 150 g ai/ha): A (76-100) | Calc Percent Control of CLADCA (AUDPC) ([3]; 60 g ai/ha, Agnique BP420, 240 mL/ha): 25.1% | Calc Percent Control of CLADCA (AUDPC) ([3]; 60 g ai/ha, MSO, 120 g ai/ha): 29.8% | Calc Percent Control of CLADCA (AUDPC) ([3]; 120 g ai/ha, Adsee C80W 80%, 300 g ai/ha): 21.9% | Calc Percent Control of CLADCA (AUDPC) ([3]; 120 g ai/ha, Agnique BP420, 480 mL/ha): 28.8% | Calc Percent Control of CLADCA (AUDPC) ([3]; 120 g ai/ha, MSO, 240 g ai/ha): 30.1% | Calc Percent Control of CLADCA (AUDPC) ([3]; 150 g ai/ha, Agnique BP420, 600 mL/ha): 35.0% | Calc Percent Control of CLADCA (AUDPC) ([3]; 150 g ai/ha, MSO, 300 g ai/ha): 29.8% | Calc Percent Control of CLADCA (AUDPC) ([3]; 180 g ai/ha, Agnique BP420, 720 mL/ha): 32.5% | Calc Percent Control of CLADCA (AUDPC) ([3]; 180 g ai/ha, MSO, 360 g ai/ha): 53.0%
